Measured values taken from patent US7687481B2, “Cannabinoid receptor antagonists/inverse agonists useful for treating obesity” (Jenrin Discovery, Inc., priority 2006, dated 2010).
Read-outs that look alike come from different tables or passages of the source.

Tests used:
[1] = molecular target: T1, human cannabinoid CB1 receptor (Homo sapiens, UniProt P21554); experiment: CB1 receptor affinity, [3H]CP-55,940 radioligand binding to CHO cell membranes
T1 construct: expressed in transfected cells; host or cells: Chinese hamster ovary (CHO) cells, stably transfected; membrane preparation
Method: CB1 receptor affinities can be determined using membrane preparations of Chinese hamster ovary (CHO) cells in which the human cannabinoid CB1 receptor is stably transfected (Biochem J. 1991, 279, 129-134) in conjunction with [3H]CP-55,940 as radioligand. After incubation of a freshly prepared cell membrane preparation with the [3H]-radioligand, with or without addition of test compound, separation of bound and free ligand is performed by filtration over glass fiber filters. Radioactivity on the filter is measured by liquid scintillation counting. The IC50 values can be determined from at least three independent measurements.
Tables A-E below describe selected examples of the present invention that have been synthesized and tested. The activities of these compounds are as follows: • +=an IC50 of ≦10 μM; • ++=IC50 of ≦1 μM; and, • +++=an IC50 ≦100 nM.

[2] = usually not maintained; cited from earlier work
[3] = cited from earlier work
[4] = Table A, read-out: CB1 Receptor Activity
[5] = Table B, read-out: CB1 Receptor Activity
[6] = Table C, read-out: CB1 Receptor Activity
[7] = Table E, read-out: CB1 Receptor Activity

T1 sequence (P21554 whole entry): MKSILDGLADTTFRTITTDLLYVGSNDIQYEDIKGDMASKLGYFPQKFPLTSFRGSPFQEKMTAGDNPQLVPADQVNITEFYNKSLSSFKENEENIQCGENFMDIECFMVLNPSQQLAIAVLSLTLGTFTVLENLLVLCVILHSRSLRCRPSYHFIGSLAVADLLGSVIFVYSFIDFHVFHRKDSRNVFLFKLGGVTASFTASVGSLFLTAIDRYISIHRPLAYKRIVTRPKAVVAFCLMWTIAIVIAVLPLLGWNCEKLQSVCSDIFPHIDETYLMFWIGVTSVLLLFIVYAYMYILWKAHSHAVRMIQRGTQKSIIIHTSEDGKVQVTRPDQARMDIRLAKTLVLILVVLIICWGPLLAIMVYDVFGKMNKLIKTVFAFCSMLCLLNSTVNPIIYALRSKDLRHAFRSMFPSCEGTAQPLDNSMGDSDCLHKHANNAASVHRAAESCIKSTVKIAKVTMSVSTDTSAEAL

SMILES	IC50 [1, 4]	IC50 [1, 5]	further results
Cc1c(C(=O)NC(CC(C)C)C(=O)O)nn(-c2ccc(Cl)cc2Cl)c1-c1ccc(Cl)cc1 (stereo not shown) [Example A-9]	< 1000 nM	–	–
Cc1c(C(=O)NCCC(N)=O)nn(-c2ccc(Cl)cc2Cl)c1-c1ccc(Cl)cc1 [Example B-1]	–	< 10000 nM	–
Cc1c(C(=O)NC(C(=O)O)C(C)(C)C)nn(-c2ccc(Cl)cc2Cl)c1-c1ccc(Cl)cc1 (stereo not shown) [Example A-12]	< 100 nM	–	–
CCOC(=O)CCCNC(=O)c1nn(-c2ccc(Cl)cc2Cl)c(-c2ccc(Cl)cc2)c1C [Example A-5]	< 10000 nM	–	–
CCOC(=O)C(Cc1ccccc1)NC(=O)c1nn(-c2ccc(Cl)cc2Cl)c(-c2ccc(Cl)cc2)c1C (stereo not shown) [Example A-2]	< 1000 nM	–	–
CCC(C)C(NC(=O)c1nn(-c2ccc(Cl)cc2Cl)c(-c2ccc(Cl)cc2)c1C)C(N)=O (stereo not shown) [Example B-4]	–	< 100 nM	–
CC(C)CC(N(C)C)C1(c2ccc(Cl)cc2)CCC1 (stereo not shown) [sibutramine]	–	–	initial weight loss compared to placebo [2]: approximately 5%
Cc1c(C(=O)NN2CCCC(C(N)=O)C2)nn(-c2ccc(Cl)cc2Cl)c1-c1ccc(Cl)cc1 (stereo not shown) [Example C-3]	–	–	IC50 [1, 6]: < 100 nM
Cc1c(C(=O)NC2CCC(C(N)=O)CC2)nn(-c2ccc(Cl)cc2Cl)c1-c1ccc(Cl)cc1 (stereo not shown) [Example E-2]	–	–	IC50 [1, 7]: < 10000 nM
CCOC(=O)C(CC(C)C)NC(=O)c1nn(-c2ccc(Cl)cc2Cl)c(-c2ccc(Cl)cc2)c1C (stereo not shown) [Example A-8]	–	–	IC50 [1]: < 100 nM
CCOC(=O)C(C)NC(=O)c1nn(-c2ccc(Cl)cc2Cl)c(-c2ccc(Cl)cc2)c1C (stereo not shown) [Example A-7]	< 1000 nM	–	–
CCOC(=O)C(NC(=O)c1nn(-c2ccc(Cl)cc2Cl)c(-c2ccc(Cl)cc2)c1C)C(C)CC (stereo not shown) [Example A-10]	< 100 nM	–	–
Cc1c(C(=O)NC(Cc2ccccc2)C(N)=O)nn(-c2ccc(Cl)cc2Cl)c1-c1ccc(Cl)cc1 (stereo not shown) [Example B-5]	–	< 100 nM	–
Cc1c(C(=O)NC(Cc2ccccc2)C(=O)O)nn(-c2ccc(Cl)cc2Cl)c1-c1ccc(Cl)cc1 (stereo not shown) [Example A-4]	< 10000 nM	–	–
CCOC(=O)C1CCC(NC(=O)c2nn(-c3ccc(Cl)cc3Cl)c(-c3ccc(Cl)cc3)c2C)CC1 (stereo not shown) [Example E-1]	–	–	IC50 [1, 7]: < 10000 nM
CCOC(=O)C(NC(=O)c1nn(-c2ccc(Cl)cc2Cl)c(-c2ccc(Cl)cc2)c1C)C(C)(C)C (stereo not shown) [Example A-11]	–	–	IC50 [1]: < 100 nM
CCOC(=O)CC(C)NC(=O)c1nn(-c2ccc(Cl)cc2Cl)c(-c2ccc(Cl)cc2)c1C (stereo not shown) [Example A-6]	< 1000 nM	–	–
Cc1c(C(=O)NCc2ccc(C(N)=O)cc2)nn(-c2ccc(Cl)cc2Cl)c1-c1ccc(Cl)cc1 [Example B-7]	–	< 1000 nM	–
CCOC(=O)C1CCCN(NC(=O)c2nn(-c3ccc(Cl)cc3Cl)c(-c3ccc(Cl)cc3)c2C)C1 (stereo not shown) [Example C-1]	–	–	IC50 [1, 6]: < 1000 nM
CCOC(=O)CNC(=O)c1nn(-c2ccc(Cl)cc2Cl)c(-c2ccc(Cl)cc2)c1C [Example A-1]	< 10000 nM	–	–
Cc1c(C(=O)NCc2cccc(C(=N)N)c2)nn(-c2ccc(Cl)cc2Cl)c1-c1ccc(Cl)cc1 [Example B-8]	–	< 1000 nM	–
Cc1c(C(=O)NC(C(N)=O)C(C)(C)C)nn(-c2ccc(Cl)cc2Cl)c1-c1ccc(Cl)cc1 (stereo not shown) [Example B-10]	–	–	IC50 [1]: < 100 nM
Cc1c(C(=O)NCc2ccc(C(=N)N)cc2)nn(-c2ccc(Cl)cc2Cl)c1-c1ccc(Cl)cc1 [Example B-9]	–	< 10000 nM	–
CCOC(=O)C1CCN(NC(=O)c2nn(-c3ccc(Cl)cc3Cl)c(-c3ccc(Cl)cc3)c2C)CC1 [Example C-2]	–	–	IC50 [1, 6]: < 1000 nM
Cc1c(C(=O)NC(CC(C)C)C(N)=O)nn(-c2ccc(Cl)cc2Cl)c1-c1ccc(Cl)cc1 (stereo not shown) [Example B-3]	–	< 1000 nM	–
CCCCCCCCCCC[C@@H](C[C@@H]1OC(=O)[C@H]1CCCCCC)OC(=O)[C@H](CC(C)C)NC=O [orlistat]	–	–	initial weight loss compared to placebo [2]: approximately 5%
CCOC(=O)CCNC(=O)c1nn(-c2ccc(Cl)cc2Cl)c(-c2ccc(Cl)cc2)c1C [Example A-3]	< 10000 nM	–	–
Cc1c(C(=O)NC(C)CC(N)=O)nn(-c2ccc(Cl)cc2Cl)c1-c1ccc(Cl)cc1 (stereo not shown) [Example B-2]	–	< 10000 nM	–
Cc1c(C(=O)NCc2cccc(C(N)=O)c2)nn(-c2ccc(Cl)cc2Cl)c1-c1ccc(Cl)cc1 [Example B-6]	–	< 1000 nM	–
Cc1c(C(=O)NN2CCCCC2)nn(-c2ccc(Cl)cc2Cl)c1-c1ccc(Cl)cc1 [rimonabant]	–	–	side effects ([3]; dose-related, most pronounced at the most efficacious weight-reducing dose): psychiatric and nervous system side effects; weight loss ([3]; obese patients): clinically meaningful weight loss
